Data taken from patent US11203591B2, “Substituted 6-azabenzimidazole compounds” (Gilead Sciences, Inc., priority 2018, dated 2021).
pIC50: −log10 of the molar value.

Each molecule was assayed against human HPK1 (MAP4K1) (Homo sapiens (Human), UniProt Q92918) (assay: HPK1 IC50 Assay (TR-FRET peptide phosphorylation)). Conditions: recombinant HPK1 kinase domain 0.15 nM, 10 μM ATP, 1 μM STK S1 peptide; geometric mean of multiple experiments.
Assay type: biochemical
Experimental: The enzymatic activity of human HPK1 (MAP4K1) was monitored in a biochemical assay in the presence or absence of compounds and using a synthetic peptide substrate. An increase in phosphorylation of the peptide by HPK1 was indicative of its kinase activity.
Recombinant HPK1 kinase domain produced via baculovirus infection of insect cells was obtained from Proteros (Proteros Biostructures #PR-0322) and was pre-activated in the presence of 2 mM ATP (Sigma-Aldrich, cat #GE27-2056-01) and 2 mM magnesium chloride for 16 hours at 4° C. The protein reaction mixture was then loaded to a desalting column (Thermo Fisher Scientific, Cat #89889) to remove excess ATP. HPK1 was eluted with buffer containing 20 mM Tris (2-Amino-2-(hydroxymethyl)propane-1,3-diol) pH 8.0, 150 mM NaCl, 2 mM dithiothreitol and 5% glycerol, and was frozen at −80° C. for later use. HPK1 dual phosphorylation was confirmed by mass spectrometry.
Ten nanoliters of test compounds dissolved in DMSO at various concentrations were dispensed into a 384-well ProxiPlate (PerkinElmer #6008289). Five microliters of a solution of recombinant HPK1 diluted in HPK1 kinase assay buffer (50 mM BES [N,N-Bis(2-hydroxyethyl)-2-aminoethanesulfonic acid], pH 7.0; 10 mM magnesium chloride; 0.01% Triton X-100; 1 mM dithiothreitol; 0.01% bovine serum albumin; 0.1 mM sodium orthovanadate) was added to the compound-containing plate and was incubated for 15 minutes at 25° C. Five microliters of a mixture of ATP (Sigma-Aldrich #A6559) and peptide substrate STK S1 (Cisbio #61ST1BLC) diluted in HPK1 kinase assay buffer was then added to start the reaction. Final concentrations were 0.15 nM for HPK1, 10 μM for ATP, and 1 μM for the STK S1 peptide substrate. The reaction mixture was incubated at 25° C. for 3 hours and was stopped with the addition of 10 μl of an EDTA (Ethylenediaminetetraacetic acid)-containing detection buffer (Cisbio #62SDBRDF) supplemented with Europium cryptate-labeled anti-phospho-serine/threonine antibodies (Cisbio #62ST1PEJ) and XL665-labeled streptavidin (Cisbio #610SAXLG). The mixture was incubated for 16 hours at room temperature and peptide phosphorylation was measured by time-resolved fluorescence energy transfer (665 nm/620 nm) on an Envision plate reader (PerkinElmer).
Data in Table 1 were normalized based on positive (staurosporine) and negative (DMSO) controls. Least squares curve fittings were performed using a four-parameter variable slope nonlinear regression model. IC50 is defined as the concentration of compound required to inhibit 50% of maximum phosphorylation. IC50 values from multiple experiments were averaged by geometric mean and the standard deviation was calculated.

Sequence of human HPK1 (MAP4K1) (Q92918 17-274): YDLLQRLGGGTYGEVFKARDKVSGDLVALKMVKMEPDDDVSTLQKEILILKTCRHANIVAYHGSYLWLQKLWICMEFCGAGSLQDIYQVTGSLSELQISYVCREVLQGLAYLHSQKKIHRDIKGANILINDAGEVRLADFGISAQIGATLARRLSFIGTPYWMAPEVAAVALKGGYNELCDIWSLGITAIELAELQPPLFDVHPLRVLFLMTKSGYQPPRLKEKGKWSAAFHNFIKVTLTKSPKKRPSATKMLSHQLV

Structure (SMILES)	pIC50
CCNC(=O)c1cc(Nc2nc(-c3ccc4c(c3)N([C@H]3C[C@@H](N5CCCCC5)C3)C(=O)C43CCN(C4COC4)CC3)cc3ncn(C(C)C)c23)c(F)cc1C [Example 69]	10.00
CNC(=O)c1cc(Nc2nc(-c3ccc4c(c3)N([C@H]3C[C@@H](N5CC6C(C5)C6(F)F)C3)C(=O)C43CCN(C4COC4)CC3)cc3ncn(C(C)C)c23)c(F)cc1C (stereo partly shown) [Example 70]	9.15
CNC(=O)c1cc(Nc2nc(-c3ccc4c(c3)N([C@H]3C[C@@H](N5CC[C@@H](F)C5)C3)C(=O)C43CCN(C4COC4)CC3)cc3ncn(C(C)C)c23)c(F)cc1C [Example 71]	10.00
CNC(=O)c1cc(Nc2nc(-c3ccc4c(c3)N([C@H]3C[C@@H](N5CC[C@H](F)C5)C3)C(=O)C43CCN(C4COC4)CC3)cc3ncn(C(C)C)c23)c(F)cc1C [Example 72]	9.70
Cc1ccc(Nc2nc(-c3ccc4c(c3)N([C@H]3C[C@@H](N5CCCCC5)C3)C(=O)C43CCN(C4COC4)CC3)cc3ncn(C(C)C)c23)cc1C(=O)NC(C)C [Example 73]	10.00
CCNC(=O)c1cc(Nc2nc(-c3ccc4c(c3)N([C@H]3C[C@@H](N5CCCCC5)C3)C(=O)C43CCN(C(C)=O)CC3)cc3ncn(C(C)C)c23)c(F)cc1C [Example 74]	9.70
CC(=O)N1CCC2(CC1)C(=O)N([C@H]1C[C@@H](N3CCCCC3)C1)c1cc(-c3cc4ncn(C(C)C)c4c(Nc4cc(C(=O)NCC(C)C)c(C)cc4F)n3)ccc12 [Example 75]	9.70
CC(=O)N1CCC2(CC1)C(=O)N([C@H]1C[C@@H](N3CCCCC3)C1)c1cc(-c3cc4ncn(C(C)C)c4c(Nc4cc(C(=O)NC5CCC5)c(C)cc4F)n3)ccc12 [Example 76]	9.70
CC(=O)N1CCC2(CC1)C(=O)N([C@H]1C[C@@H](N3C4CCC3COC4)C1)c1cc(-c3cc4ncn(C(C)C)c4c(Nc4cc(C(=O)NC(C)C)c(C)cc4F)n3)ccc12 [Example 77]	10.22
CC(=O)N1CCC2(CC1)C(=O)N([C@H]1C[C@@H](N3CC4CCC(C3)O4)C1)c1cc(-c3cc4ncn(C(C)C)c4c(Nc4cc(C(=O)NC(C)C)c(C)cc4F)n3)ccc12 [Example 78]	9.70
CNC(=O)c1cc(Nc2nc(-c3ccc4c(c3)N([C@H]3C[C@@H](N5CCCCC5)C3)C(=O)C4(C)C)cc3ncn(C4CC4)c23)ccc1C [Example 79]	9.70
CNC(=O)c1cc(Nc2nc(-c3ccc4c(c3)N([C@H]3C[C@@H](NC5CCC(F)(F)CC5)C3)C(=O)C4(C)C)cc3ncn(C(C)C)c23)ccc1C [Example 80]	10.00
CNC(=O)c1cc(Nc2nc(-c3ccc4c(c3)N([C@H]3C[C@@H](NC5CC(F)(F)C5)C3)C(=O)C4(C)C)cc3ncn(C(C)C)c23)ccc1C [Example 81]	9.52
CNC(=O)c1cc(Nc2nc(-c3ccc4c(c3)N([C@H]3C[C@@H](NCC(C)(C)F)C3)C(=O)C4(C)C)cc3ncn(C(C)C)c23)ccc1C [Example 82]	10.10
CC(=O)N1CCC2(CC1)C(=O)N([C@H]1C[C@@H](N3CCCCC3)C1)c1cc(-c3cc4ncn(C(C)C)c4c(Nc4ccc(C)c(C(=O)NC(C)C)c4)n3)ccc12 [Example 83, 5-((6-(1′-acetyl-2-oxo-1-((1s,3s)-3-(piperidin-1-yl)cyclobutyl)spiro[indoline-3,4′-piperidin]-6-yl)-3-isopropyl-3H-imidazo[4,5-c]pyridin-4-yl)amino)-N-isopropyl-2-methylbenzamide]	10.00
CNC(=O)c1cc(Nc2nc(-c3ccc4c(c3)N([C@H]3C[C@@H](N5CCCCC5)C3)C(=O)C43CCN(C(=O)C4(O)CC4)CC3)cc3ncn(C4CC4)c23)ccc1C [Example 84]	9.70
CNC(=O)c1cc(Nc2nc(-c3ccc4c(c3)N([C@H]3C[C@@H](N5CCCCC5)C3)C(=O)C43CCN(C(=O)C4(C)COC4)CC3)cc3ncn(C4CC4)c23)ccc1C [Example 85]	10.00
Cc1cc(F)c(Nc2nc(-c3ccc4c(c3)N([C@H]3C[C@@H](N5CCCCC5)C3)C(=O)C43CCN(C4COC4)CC3)cc3ncn(C(C)C)c23)cc1C(=O)NC(C)C [Example 99]	9.70
Cc1cc(F)c(Nc2nc(-c3ccc4c(c3)N([C@H]3C[C@@H](N5CCC(C)(C)C5)C3)C(=O)C43CCN(C4COC4)CC3)cc3ncn(C(C)C)c23)cc1C(=O)NC(C)C [Example 100]	9.52

Results, then the molecule that gave them:

pIC50	Structure (SMILES)
9.70	COCCNC(=O)c1cc(Nc2nc(-c3ccc4c(c3)N([C@H]3C[C@@H](N5CCCCC5)C3)C(=O)C43CCN(C(C)=O)CC3)cc3ncn(C(C)C)c23)c(F)cc1C [Example 86]
9.52	CC[C@@H](C)NC(=O)c1cc(Nc2nc(-c3ccc4c(c3)N([C@H]3C[C@@H](N5CCCCC5)C3)C(=O)C43CCN(C(C)=O)CC3)cc3ncn(C(C)C)c23)c(F)cc1C [Example 87]
9.70	CC[C@H](C)NC(=O)c1cc(Nc2nc(-c3ccc4c(c3)N([C@H]3C[C@@H](N5CCCCC5)C3)C(=O)C43CCN(C(C)=O)CC3)cc3ncn(C(C)C)c23)c(F)cc1C [Example 88]
9.70	CC(=O)N1CCC2(CC1)C(=O)N([C@H]1C[C@@H](N3CCCCC3)C1)c1cc(-c3cc4ncn(C(C)C)c4c(Nc4cc(C(=O)NC(C)C)c(Cl)cc4F)n3)ccc12 [Example 89]
9.52	COCC1(NC(=O)c2cc(Nc3nc(-c4ccc5c(c4)N([C@H]4C[C@@H](N6CCCCC6)C4)C(=O)C54CCN(C(C)=O)CC4)cc4ncn(C(C)C)c34)c(F)cc2C)CC1 [Example 90]
10.00	CC(=O)N1CCC2(CC1)C(=O)N([C@H]1C[C@@H](N3CCCCC3)C1)c1cc(-c3cc4ncn(C(C)C)c4c(Nc4cc(C(=O)NC5CC5)c(C)cc4F)n3)ccc12 [Example 91]
10.10	CNC(=O)c1cc(Nc2nc(-c3ccc4c(c3)N([C@H]3C[C@@H](N5CCCCC5)C3)C(=O)C43CCN(C(C)=O)CC3)cc3ncn(C(C)C)c23)c(F)cc1C [Example 92]
9.70	CNC(=O)c1cc(Nc2nc(-c3ccc4c(c3)N([C@H]3C[C@@H](N5CCCCC5)C3)C(=O)C43CCN(C(C)=O)CC3)cc3ncn(C4CC4)c23)c(F)cc1Cl [Example 93]
10.22	CC(=O)N1CCC2(CC1)C(=O)N([C@H]1C[C@@H](N3CCCCC3)C1)c1cc(-c3cc4ncn(C(C)C)c4c(Nc4ccc(C)c(C(=O)NC5CC5)c4)n3)ccc12 [Example 94]
9.52	CNC(=O)c1cc(Nc2nc(-c3ccc4c(c3)N([C@H]3C[C@@H](N5CCCCC5)C3)C(=O)C43CCN(C(C)=O)CC3)cc3ncn(C4CC4)c23)c(F)cc1C [Example 95]
9.70	CNC(=O)c1cc(Nc2nc(-c3ccc4c(c3)N([C@H]3C[C@@H](N5CCCCC5)C3)C(=O)C43CCN(C(C)=O)CC3)cc3ncn(C4CC4)c23)cc(C)c1C [Example 96]
9.40	CNC(=O)c1ccc(F)c(Nc2nc(-c3ccc4c(c3)N([C@H]3C[C@@H](N5CCCCC5)C3)C(=O)C43CCN(C(C)=O)CC3)cc3ncn(C4CC4)c23)c1 [Example 97]
10.05	CNC(=O)c1cc(Nc2nc(-c3ccc4c(c3)N([C@H]3C[C@@H](N5CCCCC5)C3)C(=O)C43CCN(C(=O)C(C)(C)C)CC3)cc3ncn(C4CC4)c23)ccc1C [Example 98]
9.70	CCn1cnc2cc(-c3ccc4c(c3)N([C@H]3C[C@@H](N5CCCCC5)C3)C(=O)C4(C)C)nc(Nc3cc(C(=O)NC)c(C)cc3F)c21 [Example 101]
10.05	CCn1cnc2cc(-c3ccc4c(c3)N([C@H]3C[C@@H](N5CCCCC5)C3)C(=O)C4(C)C)nc(Nc3ccc(C)c(C(=O)NC)c3)c21 [Example 102]
